Each molecule was assayed against T1, human APJ receptor (Homo sapiens, UniProt P35414) (assay: Intracellular cAMP Accumulation Assay (APJ hcAMP, HTRF)). Conditions: not given.
T1 construct: expressed in transfected cells; host or cells: HEK293
T1 sequence (P35414 1-380): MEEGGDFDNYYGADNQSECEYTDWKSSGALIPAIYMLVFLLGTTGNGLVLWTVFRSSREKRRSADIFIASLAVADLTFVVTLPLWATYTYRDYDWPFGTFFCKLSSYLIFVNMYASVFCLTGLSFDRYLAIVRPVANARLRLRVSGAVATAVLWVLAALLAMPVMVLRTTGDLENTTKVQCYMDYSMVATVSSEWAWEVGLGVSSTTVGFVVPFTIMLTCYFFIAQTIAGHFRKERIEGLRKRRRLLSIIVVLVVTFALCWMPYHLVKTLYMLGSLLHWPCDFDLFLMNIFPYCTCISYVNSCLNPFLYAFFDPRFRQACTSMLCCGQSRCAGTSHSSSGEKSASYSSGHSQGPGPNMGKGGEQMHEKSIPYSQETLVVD
Format: cell-based
Outline: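 Stably transfected HEK293 cells (5,000/well) incubated 30 min at room temperature with serially diluted compound, […] and 2 μM forskolin. cAMP measured by HTRF after 60 min with detection reagents, quantified against a cAMP standard curve; EC50 from variable-slope sigmoidal fit of inhibition of forskolin-stimulated cAMP.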

Row | EC50 [nM] | Compound
1 | 0.01 to 10 | CCCCc1nc(=O)c(C(=O)N2CCC(c3ccccn3)C2)c(O)n1-c1c(OC)cccc1OC (single isomer, unassigned) [Example 68, 2-butyl-1-(2,6-dimethoxyphenyl)-6-hydroxy-5-[3-(pyridin-2-yl)pyrrolidine-1-carbonyl]-1,4-dihydropyrimidin-4-one]

Same assay, conditions: human APJ, cAMP accumulation; potency range class; read-out: hAPJ cAMP EC50 Potency range

Row | EC50 [nM] | Compound
2 | 0.01 to 10 | COc1cccc(OC)c1-n1c(-c2cncc(C)c2)nc(=O)c(C(=O)N2CCC(c3ccc(F)cc3)C2)c1O (single isomer, unassigned) [Example 232, 1-(2,6-dimethoxyphenyl)-5-[3-(4-fluorophenyl)pyrrolidine-1-carbonyl]-6-hydroxy-2-(5-methylpyridin-3-yl)-1,4-dihydropyrimidin-4-one]
3 | 0.01 to 10 | CCCCc1nc(=O)c(C(=O)N2CCC(c3ncc(F)cc3F)C2)c(O)n1-c1c(OC)cccc1OC (single isomer, unassigned) [Example 358, 2-butyl-5-(3-(3,5-difluoropyridin-2-yl)pyrrolidine-1-carbonyl)-1-(2,6-dimethoxyphenyl)-6-hydroxypyrimidin-4(1H)-one]
4 | 0.01 to 10 | CCc1cccc(CC)c1-n1c(-c2ccn(C(C)C)n2)nc(=O)c(C(=O)N2CCC(c3ncccc3F)C2)c1O (single isomer, unassigned) [Example 292, 1-(2,6-diethylphenyl)-5-[3-(3-fluoropyridin-2-yl)pyrrolidine-1-carbonyl]-6-hydroxy-2-[1-(propan-2-yl)-1H-pyrazol-3-yl]-1,4-dihydropyrimidin-4-one]
5 | 0.01 to 10 | CCc1cccc(CC)c1-n1c(-c2ccn(C)n2)nc(=O)c(C(=O)N2CC[C@H](c3ccccc3)C2)c1O [Example 283, 1-(2,6-diethylphenyl)-6-hydroxy-2-(1-methyl-1H-pyrazol-3-yl)-5-[(3R)-3-phenylpyrrolidine-1-carbonyl]-1,4-dihydropyrimidin-4-one]
6 | 0.01 to 10 | COc1cccc(OC)c1-n1c(-c2cncc(Cl)c2)nc(=O)c(C(=O)N2CCC(c3ccc(F)cc3F)C2)c1O (single isomer, unassigned) [Example 260, 2-(5-chloropyridin-3-yl)-5-[3-(2,4-difluorophenyl)pyrrolidine-1-carbonyl]-1-(2,6-dimethoxyphenyl)-6-hydroxy-1,4-dihydropyrimidin-4-one]
7 | 0.01 to 10 | CCc1cccc(CC)c1-n1c(-c2ccn(CC(C)C)n2)nc(=O)c(C(=O)N2CCC(c3ccc(F)cn3)C2)c1O (single isomer, unassigned) [Example 318, 1-(2,6-diethylphenyl)-5-[3-(5-fluoropyridin-2-yl)pyrrolidine-1-carbonyl]-6-hydroxy-2-[1-(2-methylpropyl)-1H-pyrazol-3-yl]-1,4-dihydropyrimidin-4-one]
8 | 0.01 to 10 | CCCCc1nc(=O)c(C(=O)N2CCC(c3ncc(F)cc3F)C2)c(O)n1-c1c(OC)cccc1OC (single isomer, unassigned) [Example 359, 2-butyl-5-(3-(3,5-difluoropyridin-2-yl)pyrrolidine-1-carbonyl)-1-(2,6-dimethoxyphenyl)-6-hydroxypyrimidin-4(1H)-one]
9 | 0.01 to 10 | COc1cccc(OC)c1-n1c(CC2CC2)nc(=O)c(C(=O)N2CCC(c3ccc(Cl)cc3)C2)c1O (single isomer, unassigned) [Example 228, 5-[3-(4-chlorophenyl)pyrrolidine-1-carbonyl]-2-(cyclopropylmethyl)-1-(2,6-dimethoxyphenyl)-6-hydroxy-1,4-dihydropyrimidin-4-one]

Same assay, conditions: human APJ, intracellular cAMP accumulation; read-out: hAPJ cAMP EC50 Potency range

Row | Compound | EC50 [nM]
10 | CCCCc1nc(=O)c(C(=O)N2CC[C@@H](c3ccccc3)C2)c(O)n1[C@@H](C)c1ccccc1OC [Example 151, 2-butyl-6-hydroxy-3-[(1S)-1-(2-methoxypheny)ethyl]-5-[(3S)-3-phenylpyrrolidine-1-carbonyl]-3,4-dihydropyrimidin-4-one] | 10 to 100
11 | COc1cccc(OC)c1-n1c(COC(C)C)nc(=O)c(C(=O)N2CC[C@H](c3ccccc3)C2)c1O [Example 12, (R)-1-(2,6-dimethoxyphenyl)-6-hydroxy-2-(isopropoxymethyl)-5-(3-phenylpyrrolidine-1-carbonyl)pyrimidin-4(1H)-one] | 0.01 to 10
12 | CCCCc1nc(=O)c(C(=O)N2CC[C@@H](c3ccccc3)C2)c(O)n1C(C)C [Example 159, 2-butyl-6-hydroxy-5-[(3S)-3-phenylpyrrolidine-1-carbonyl]-3-(propan-2-yl)-3,4-dihydropyrimidin-4-one] | 100 to 300
13 | CCCCc1nc(=O)c(C(=O)N2Cc3ccccc3C2)c(O)n1-c1c(OC)cccc1OC [Example 66, 2-butyl-5-(2,3-dihydro-1H-isoindole-2-carbonyl)-1-(2,6-dimethoxyphenyl)-6-hydroxy-1,4-dihydropyrimidin-4-one] | 0.01 to 10
14 | CCCCc1nc(=O)c(C(=O)N2CC[C@H](c3ccccc3)C2)c(O)n1C(C)c1ccccc1Cl (stereo partly drawn) [Example 134, 2-butyl-3-[1-(2-chlorophenyl)ethyl]-6-hydroxy-5-[(3R)-3-phenylpyrrolidine-1-carbonyl]-3,4-dihydropyrimidin-4-one] | 10 to 100
15 | CCCCc1nc(=O)c(C(=O)N2CCC(c3ccccc3)CC2)c(O)n1-c1c(OC)cccc1OC [Example 72, 2-butyl-1-(2,6-dimethoxyphenyl)-6-hydroxy-5-(4-phenylpiperidine-1-carbonyl)-1,4-dihydropyrimidin-4-one] | 10 to 100
16 | CCCCc1nc(=O)c(C(=O)N2CC[C@H](c3ccccc3)C2)c(O)n1[C@@H](C)c1ccc(F)cc1 [Example 157, 2-butyl-3-[(1S)-1-(4-fluorophenyl)ethyl]-6-hydroxy-5-[(3R)-3-phenylpyrrolidine-1-carbonyl]-3,4-dihydropyrimidin-4-one] | 100 to 300
17 | CCCCc1nc(=O)c(C(=O)N2CC[C@H](c3ccccc3)C2)c(O)n1[C@@H](CCC)c1ccccc1 [Example 137, 2-butyl-6-hydroxy-3-[(1S)-1-phenylbutyl]-5-[(3R)-3-phenylpyrrolidine-1-carbonyl]-3,4-dihydropyrimidin-4-one] | 10 to 100
18 | COc1cccc(OC)c1-n1c(COC(C)C)nc(=O)c(C(=O)N2CCC(c3ccc(C#N)cc3)C2)c1O (single isomer, unassigned) [Example 108, 4-{1-[1-(2,6-dimethoxyphenyl)-6-hydroxy-4-oxo-2-[(propan-2-yloxy)methyl]-1,4-dihydropyrimidine-5-carbonyl]pyrrolidin-3-yl}benzonitrile] | 0.01 to 10
19 | CCc1cccc(CC)c1-n1c(COC(C)C)nc(=O)c(C(=O)N2CCC(c3ccccn3)C2)c1O (single isomer, unassigned) [Example 18, 1-(2,6-diethylphenyl)-6-hydroxy-2-(isopropoxymethyl)-5-(3-(pyridin-2-yl)pyrrolidine-1-carbonyl)pyrimidin-4(1H)-one] | 0.01 to 10
20 | CC[C@@H](c1cc(F)cc(F)c1)n1c(-c2ccn(C)n2)nc(=O)c(C(=O)N2CCC(c3ncc(F)cc3F)C2)c1O (single isomer, unassigned) [Example 184] | 0.01 to 10

The remaining lines, values ahead:

Row | EC50 [nM] | Compound
21 | 0.01 to 10 | CC[C@@H](c1cc(F)cc(F)c1)n1c(-c2cnn(C)c2)nc(=O)c(C(=O)N2CCC(c3ccc(Cl)cn3)C2)c1O (single isomer, unassigned) [Example 218]
22 | 0.01 to 10 | CC[C@@H](c1cc(F)cc(F)c1)n1c(-c2ccn(C)n2)nc(=O)c(C(=O)N2CCC(c3ccccc3OC)C2)c1O (single isomer, unassigned) [Example 195]

Source: US10590113B2, “6-hydroxy-4-oxo-1,4-dihydropyrimidine-5-carboxamides as APJ agonists” (priority 2016, dated 2020)
